US7745569B2, “Amyloid specific binding peptides and detecting abeta peptide” (The Regents of the University of California, priority 2003, dated 2010)
Entries after “also recorded” stand apart in the source; their conditions may differ. Blank lines part the entries; values can stand above or below the compound they belong to. Positions of bridges follow the written chain, without caps; N, C: chain ends. Residues, ends and D or L forms follow the SMILES beside them. No end group written: not given here. *: point of attachment. Biotin = O=C1N[C@H]2[C@H](CS[C@H]2CCCCC(=O)*)N1

Tests used:
[1] = Uptake of peptide into brain, liver and kidney after tail vein injection; details: mouse, i.v. tail vein, 100 μL of 1 mg/mL; percentage relative to peptide in serum; SD, n=4
Description: (§1) Peptides were injected in sterile Tris-buffered saline, pH 7.4, with 1 mM CaCl2 and 1 mM MgCl2. 4 animals were injected for each condition. Animals were then sacrificed after one minute or two minutes. Immediately upon sacrifice, blood and organs were harvested. To quantitate peptide uptake, brain, liver, and kidney were washed and the tissues lysed by homogenization in doubly distilled water. Organs and blood were centrifuged at 13000 g to collect lysate. Organ lysates or serum were then immobilized on ELISA plates that had been coated with nitrocellulose. Some tissue and serum samples were spiked with known amounts of purified peptide to verify levels of peptide immobilization in different sample types. […] The levels of biotinylated peptide immobilized on ELISA plates was quantitated by binding of alkaline phosphatase-conjugated streptavidin. Levels of streptavidin binding were determined by development with para-nitrophenylphosphate, as in Kang et al. (Neurobiology of Disease 14:146-156 (2003)).

[2] = mouse, in vivo, iv
Description: as §1

[3] = target: T1, amyloid form of Aβ1-40 peptide (Homo sapiens, UniProt P05067, R676K/Y681T); experiment: Staining of Aβ1-40 amyloid by phage clones; type: binding; details: 10^11 PFU/ml phage; anti-M13 antibody/alkaline phosphatase detection
T1 construct: purchased Bachem (Torrence, Calif.)
Description: Staining and blotting with phage: 10^11 PFU (plaque forming units)/ml of various phage clones were incubated with the amyloid form of Aβ1-40 peptide. Aβ amyloid was made by incubating peptide in TBS (pH 7.4) for 7 days on Falcon 24-well tissue culture wells. After washing, bound phage were visualized by incubation with biotinylated anti-M13 antibody and alkaline phosphatase-conjugated streptavidin, followed by incubation for equivalent times in 5-bromo-4-chloro-3-indolyl phosphate (BCIP) and nitroblue tetrazolium (NBT).

[4] = system: amyloid plaques in Alzheimer's disease brain; experiment: Staining of human brain sections (AD and normal) with Thio-Aβ, Thio and synthetic peptide; type: binding
Description: Staining of human brain with recombinant Thio-Aβ-protein and synthetic peptides: Normal and AD brain samples were obtained from the UCSD Alzheimer's Research Center (La Jolla, Calif.). Sections from a non-AD amyloidosis patient were obtained from the Department of Pathology (UCSD). Paraffin-embedded samples of cortex or other tissues were sectioned at 10 μm and mounted on glass slides. […] Binding was determined by subsequent staining with anti-Thio antibody and anti-mouse IgG coupled to alkaline phosphatase as above. After washing, staining was developed using 5-bromo-4-chloro-3-indolyl-phosphate and nitroblue tetrazolium for identical periods of time. All washes and incubations were done in phage buffer. The existence of amyloid plaques was confirmed by binding of anti-Aβ monoclonal antibody (2066) to sections from the same brain samples. No significant staining was ever observed with secondary antibody alone. Background staining was allowed to develop to the point where cells in the section were evident.
For staining with synthetic peptide, tissue sections from AD and non-AD brain, as well as from brain, kidney, small bowel, large bowel, and prostate from a non-AD patient with amyloidosis, were cut and prepared as above. Biotinylated peptide ([…]) (SEQ ID NO:4) was added in phage buffer for 1 hour at concentrations ranging from 0.1-10 μM. Sections were washed with phage buffer, incubated with streptavidin coupled to alkaline phosphatase, washed and developed as above. […] Congo Red or hematoxylin and eosin staining was done to confirm the presence of amyloid in amyloidosis sections.

Aβ1-40 amyloid = target: T2, Aβ1-40 amyloid (Homo sapiens, UniProt P05067, R676K/Y681T); type: binding; details: immobilized Aβ1-40 amyloid, ELISA
T2 construct: purchased Bachem (Torrence, Calif.)
Description: Immobilized Aβ1-40 was blocked in phage panning buffer (Hanks balanced salts with 1 mM CaCl2 and 1 mM MgCl2, 10 mM Hepes, pH 7.4, and 0.5% BSA) for one hour. […] Plates were extensively washed in phage panning buffer without BSA. Anti-Thio antibody (Invitrogen; Carlsbad, Calif.) was added for 30 minutes in phage panning buffer at a dilution of 1:500. After washing, anti-mouse IgG conjugated to alkaline phosphatase was added at 1:500 for 40 minutes. Plates were washed again and incubated with paranitrophenyl phosphate (Sigma; St. Louis, Mo.). Developing substrate was read several times at 405 nm on an ELISA plate reader over the linear range (OD 0.2-1.0) and normalized to the highest binding signal. To calculate dissociation constants, binding curves were fitted by non-linear regression analysis assuming a single class of equivalent binding sites.

% uptake/min, Kidney [1]: 0.16 ± 0.02% uptake/min
Compound: CC(C)C[C@@H]1NC(=O)[C@H](CCCNC(=N)N)NC(=O)[C@H](Cc2c[nH]c3ccccc23)NC(=O)[C@H](CCCNC(=N)N)NC(=O)CNC(=O)CNC(=O)[C@H](CCCCN)NC(=O)CNC(=O)[C@H](Cc2c[nH]c3ccccc23)NC(=O)[C@H](CC(=O)O)NC(=O)[C@@H](NC(=O)[C@H](CCC(=O)O)NC(=O)[C@H](C)NC(=O)CCCC[C@@H]2SC[C@@H]3NC(=O)N[C@@H]32)CSSC[C@@H](C(=O)NCC(=O)N2CCC[C@H]2C(=O)O)NC(=O)[C@H](C)NC(=O)[C@H](CCC(=O)O)NC(=O)[C@H]([C@@H](C)O)NC(=O)[C@H](CCCCN)NC(=O)CNC(=O)[C@H](CO)NC(=O)[C@H](C)NC(=O)CNC(=O)[C@@H]2CCCN2C(=O)[C@H](Cc2c[nH]c3ccccc23)NC1=O (Biotin-AECDWGKGGRWRLWPGASGKTEACGP-OH; disulfide 3-24 (inferred); C-terminus assumed)

crossing of the blood-brain barrier (in words) [2]: did not cross the blood-brain barrier
Compound: CC(C)C[C@H](NC(=O)[C@H](CCCNC(=N)N)NC(=O)[C@H](Cc1c[nH]c2ccccc12)NC(=O)[C@H](CCCNC(=N)N)NC(=O)CNC(=O)CNC(=O)[C@H](CCCCN)NC(=O)CNC(=O)[C@H](Cc1c[nH]c2ccccc12)NC(=O)[C@H](CC(=O)O)NC(=O)CCCC[C@@H]1SC[C@@H]2NC(=O)N[C@@H]21)C(=O)N[C@@H](Cc1c[nH]c2ccccc12)C(=O)N1CCC[C@H]1C(=O)NCC(=O)N[C@@H](C)C(=O)N[C@@H](CO)C(=O)NCC(=O)N[C@@H](CCCCN)C(=O)N[C@H](C(=O)N[C@@H](CCC(=O)O)C(=O)N[C@@H](C)C(=O)O)[C@@H](C)O (Biotin-DWGKGGRWRLWPGASGKTEA-OH)

Compound: DWGKGGRWRLWPGASGKTEA
staining of Aβ1-40 amyloid by phage clone [3]: identified both small and large (0.5-50 μm) accumulations of Aβ1-40 amyloid; also recorded: stained Aβ1-40 amyloid

Compound: PGRSPFTGKKLFNQEFSQDQ
staining of Aβ1-40 amyloid by phage clone [3]: stained Aβ1-40 amyloid aggregates more poorly, but still stained well above background levels; also recorded: stained Aβ1-40 amyloid less well

Compound: Thio-Aβ: Recombinant fusion protein of thioredoxin with the cysteine-flanked DWGKGGRWRLWPGASGKTEA (SEQ ID NO:2) peptide (PAECDWGKGGRWRLWPGASGKTEACGPPY; cysteine pairing not given here; also: recombinant fusion with thioredoxin, carrier left off)
lowest concentration giving positive staining of amyloid plaques ([4]; AD brain sections): 100 nM
staining of neurofibrillary tangles ([4]; AD brain sections): not evident
staining of amyloid plaques in AD brain ([4]; paraffin sections of AD brain): heavily stained amyloid plaques from AD brains; also recorded: bound specifically to amyloid plaques in AD brains; also recorded: confirmed in brains from multiple AD subjects
staining of normal brain ([4]; paraffin sections of normal (non-AD) brain): did not stain any structures in normal brain tissue; also recorded: did not bind to normal brain samples; also recorded: negative in multiple non-AD controls
concentration at which binding to Aβ1-40 amyloid is saturating (Aβ1-40 amyloid): 200 nM
